Earlier results on 1 molecule are cited in patent US5164490A, “Pneumocystis carinii dihydrofolate reductase gene and methods for its use” (The Regents of the University of California, priority 1989, dated 1992).

This data set has as its system P. carinii. The conditions noted are these: trimethoprim alone.

Each structure is given as a SMILES string.

With `COc1cc(Cc2cnc(N)nc2N)cc(OC)c1OC` [trimethoprim], the “efficacy in the rat model of P. carinii infection” value is on record as “lack of efficacy”.
